# Measurements taken from publication PMC3281519 (Journal of Medicinal Chemistry, 2011).
# Tests used:
# [1] = test system: U937 cell line; assay: Acute toxicity on U937 cell line; assay type: cell-based; conditions: U937 cells
# [2] = Pharmacokinetics after oral administration in rats; assay type: in vivo; conditions: rat; compared with 21j
# [3] = test system: Sprague-Dawley rats; assay type: in vivo; conditions: rats treated at 10 mg/kg s.c., observed over nine hours
# [4] = molecular target: T1, human recombinant COX-2 (Homo sapiens, UniProt P35354); assay: COX Fluorescent Inhibitor Screening Assay, COX-2; conditions: compared to compound 21b
# T1 sequence (P35354 18-604): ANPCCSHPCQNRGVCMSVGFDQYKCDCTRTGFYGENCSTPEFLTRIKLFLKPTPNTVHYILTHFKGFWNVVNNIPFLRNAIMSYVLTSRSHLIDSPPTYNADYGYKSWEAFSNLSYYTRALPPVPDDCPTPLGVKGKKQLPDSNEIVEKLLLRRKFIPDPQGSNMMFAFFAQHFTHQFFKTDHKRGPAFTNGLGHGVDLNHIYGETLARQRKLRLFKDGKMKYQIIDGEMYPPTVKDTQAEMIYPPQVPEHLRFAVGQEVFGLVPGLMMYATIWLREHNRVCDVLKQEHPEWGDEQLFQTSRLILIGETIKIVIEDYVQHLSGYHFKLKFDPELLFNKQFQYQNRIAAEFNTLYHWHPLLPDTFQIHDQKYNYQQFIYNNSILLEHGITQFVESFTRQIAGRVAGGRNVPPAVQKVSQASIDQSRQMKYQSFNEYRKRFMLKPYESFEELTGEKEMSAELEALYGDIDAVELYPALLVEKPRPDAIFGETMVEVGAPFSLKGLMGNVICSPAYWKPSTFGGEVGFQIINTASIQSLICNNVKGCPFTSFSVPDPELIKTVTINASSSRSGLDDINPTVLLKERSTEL
# [5] = molecular target: T2, recombinant human sEH (Homo sapiens, UniProt P34913); assay: sEH IC50 kinetic fluorescent assay; assay type: biochemical
# T2 sequence (P34913 1-555): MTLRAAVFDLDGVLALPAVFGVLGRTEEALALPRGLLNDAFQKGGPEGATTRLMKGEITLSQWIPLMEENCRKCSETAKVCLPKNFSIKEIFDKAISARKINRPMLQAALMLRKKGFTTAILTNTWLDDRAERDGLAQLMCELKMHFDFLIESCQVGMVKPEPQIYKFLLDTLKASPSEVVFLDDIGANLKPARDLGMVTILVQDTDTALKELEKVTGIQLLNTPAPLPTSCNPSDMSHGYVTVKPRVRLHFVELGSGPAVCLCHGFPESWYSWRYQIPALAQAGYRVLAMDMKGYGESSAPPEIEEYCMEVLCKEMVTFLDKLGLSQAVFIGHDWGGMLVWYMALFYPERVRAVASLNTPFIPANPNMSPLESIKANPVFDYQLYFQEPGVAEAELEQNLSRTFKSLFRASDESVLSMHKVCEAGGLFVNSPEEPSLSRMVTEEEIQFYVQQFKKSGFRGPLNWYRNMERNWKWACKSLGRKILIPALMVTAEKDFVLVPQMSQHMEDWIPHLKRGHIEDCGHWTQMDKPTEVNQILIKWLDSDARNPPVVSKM
# [6] = Pharmacokinetic screening by oral cassette dosing in mice; assay type: in vivo; conditions: mouse; compared to 21i and 21j
compound,measurement,setting,value
"NS(=O)(=O)c1ccc(-n2nc(CCCNC(=O)Nc3ccc(C(F)(F)F)cc3)cc2-c2ccccc2)cc1 [Compound 21i, 4-(5-Phenyl-3-{3-[3-(4-trifluoromethyl-phenyl)-ureido]-propyl}-pyrazol-1-yl)-benzenesulfonamide]",acute toxicity on U937 cell line,[1],did not observe any acute toxicity
same,higher Cmax,[2],2 fold
same,overt signs of behavioral changes or acute toxicity,[3],no overt signs of any behavioral changes or acute observable symptoms of toxicity
Cc1ccc(-c2cc(CCCNC(=O)Nc3cccc(C(F)(F)F)c3)nn2-c2ccc(S(N)(=O)=O)cc2)cc1 [Compound 21c],diminished COX-2 activity,[4],3 fold
same,diminished sEH activity,[5]; compared to compound 21b,3 fold
"NS(=O)(=O)c1ccc(-n2nc(CCNC(=O)Nc3cccc(C(F)(F)F)c3)cc2-c2ccccc2)cc1 [Compound 15, 4-(5-Phenyl-3-{2-[3-(3-trifluoromethyl-phenyl)-ureido]-ethyl}-pyrazol-1-yl)-benzenesulfonamide]",improvement of sEH inhibition,[5]; compared to compound 11g,3 fold
"CS(=O)(=O)c1ccc(-n2nc(CNC(=O)NC3CCCCCC3)cc2-c2ccccc2)cc1 [Compound 11b, 1-Cycloheptyl-3-[1-(4-methanesulfonyl-phenyl)-5-phenyl-1H-pyrazol-3-ylmethyl]-urea]",improvement of sEH inhibition,[5]; compared with compound 11a,10 fold
"NS(=O)(=O)c1ccc(-n2nc(CCCNC(=O)Nc3cccc(C(F)(F)F)c3)cc2-c2ccccc2)cc1 [Compound 21b, 4-(5-Phenyl-3-{3-[3-(3-trifluoromethyl-phenyl)-ureido]-propyl}-pyrazol-1-yl)-benzenesulfonamide]",decrease in AUC,[6],8 fold
same,lower Cmax,[6],15 fold
same,improvement of sEH inhibition,[5]; compared to compound 11g,20 fold
